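A five-concentration, 48-hour dose response in 96-well plates underlies each endpoint, interpolated linearly between surrounding concentrations. Here, GI50 denotes the concentration required for 50% inhibition of growth. At the TGI there is no net growth.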
Tests used:
Assay in all cases: inhibition of tumour cell growth, NCI panel, 48 h
786-0 renal = test system: 786-0 renal
SN12C renal = test system: SN12C renal
NCI/ADR-RES ovarian = test system: NCI/ADR-RES ovarian
U251 CNS = test system: U251 CNS
T-47D breast = test system: T-47D breast
CCRF-CEM leukemia = test system: CCRF-CEM leukemia

| Compound | TGI (786-0 renal) [µM] | TGI (SN12C renal) [µM] | TGI (NCI/ADR-RES ovarian) [µM] | TGI (U251 CNS) [µM] | TGI (T-47D breast) [µM] | TGI (CCRF-CEM leukemia) [µM] | GI50 (SN12C renal) [µM] | GI50 (NCI/ADR-RES ovarian) [µM] | GI50 (T-47D breast) [µM] | GI50 (CCRF-CEM leukemia) [µM] |
| --- | --- | --- | --- | --- | --- | --- | --- | --- | --- | --- |
| Cc1cccc(-c2cc(=O)c3ccc(C)nc3[nH]2)c1 | > 100 | > 100 | 0.383 | > 100 | > 100 | > 22.8 | – | – | – | – |
| O=[N+]([O-])CC(SCc1ccccc1)c1ccc2c(c1)OCO2 (centres undefined) | 3.42 | 25.7 | 28.8 | 18.7 | 47.7 | 8.74 | – | – | – | – |
| COC(=O)C1=NN2c3ccccc3C(=O)OCCC2C1 (centres undefined) | > 100 | > 100 | > 100 | > 100 | > 100 | > 100 | – | – | – | – |
| N#Cc1c(=O)c2cc([N+](=O)[O-])ccc2n2c1[nH]c1ccccc12 | > 100 | > 100 | > 56.4 | > 92.6 | > 72.7 | > 100 | – | – | – | – |
| CCN1/C(=C/c2ccc3ccccc3[n+]2CC)C=Cc2ccccc21 | 13.9 | 12.8 | 88.9 | 11.1 | 6.31 | 6.81 | – | – | – | – |
| CCC(=O)OCc1ccc2oc(=O)c(C(=O)Oc3cncc(Cl)c3)cc2c1 | > 100 | > 100 | > 100 | > 100 | > 100 | 24.8 | – | – | – | – |
| CC(=O)Oc1ccn2nc(C)c(Br)c2c1Br | > 100 | > 57.8 | > 100 | > 100 | > 76.8 | 47.1 | – | – | – | – |
| CC(C)CCCC(C)[C@H]1CC[C@H]2[C@@H]3CC[C@H]4C[C@@H](CCC=C(c5cc(Cl)c(O)c(C(=O)OC(C)(C)C)c5)c5cc(Cl)c(O)c(C(=O)OC(C)(C)C)c5)CC[C@]4(C)[C@H]3CC[C@]12C (some centres undefined) | > 50 | > 50 | > 50 | > 50 | > 50 | > 50 | – | – | – | – |
| O=C1Oc2ccccc2C(=O)/C1=C/N1C(=O)/C(=C/c2ccc([N+](=O)[O-])cc2)SC1=S | > 100 | 51.6 | 95.7 | > 100 | 51.7 | > 100 | – | – | – | – |
| N=c1c2c3n(c4c(=O)n(-c5ccccc5)c(=S)n(c(=O)n1-c1ccccc1)c24)CCCCC3 | > 100 | > 100 | > 100 | > 100 | > 100 | > 100 | – | – | – | – |
| Oc1cc(Cl)cc2cc(Br)cnc12 | > 100 | > 100 | > 54.5 | 98.1 | > 59.6 | 9.51 | – | – | – | – |
| C=C1CC/C=C(/C(=O)O)CC[C@H]2[C@@H]1CC2(C)C | > 100 | > 100 | – | > 100 | > 100 | > 100 | – | – | – | – |
| O=[N+]([O-])c1ccc(Cl)cc1C1ON=C(c2ccccc2)N1C12CC3CC(CC(C3)C1)C2 (centres undefined) | > 100 | > 100 | > 100 | > 100 | > 100 | > 100 | – | – | – | – |
| CC1(C)OCC2OC3([C@H](O)CCO)OC(C)(C)OC3C2O1 (some centres undefined) | > 100 | > 100 | > 100 | > 100 | > 100 | > 100 | – | – | – | – |
| OC(c1cccs1)c1cc2ccccc2s1 (centres undefined) | > 10 | > 10 | > 10 | > 10 | > 10 | > 10 | – | – | – | – |
| Oc1[nH]c2ccccc2c1N=NC1=NCCCCN1 | > 100 | > 100 | > 100 | > 100 | > 100 | > 100 | – | – | – | – |
| Cc1ccc(C(=O)CC(Cl)=C(Cl)Cl)cc1 | > 100 | – | > 100 | > 100 | > 100 | 52.1 | – | – | – | – |
| c1ccc2c(c1)CCc1c-2n(CCN2CCCCC2)c2ccccc12 | 33 | 36.9 | 33.1 | 30.3 | 44.5 | > 100 | – | – | – | – |
| COC(=O)c1ccc2n1C1CC3CC(CC2C3)C1 | > 100 | > 100 | > 100 | > 100 | > 100 | > 100 | – | – | – | – |
| COC(=O)NCCc1[nH]nc2c1C(=O)C=C(OC)C2=O | 36.2 | 38.8 | > 100 | 32 | – | 45.8 | – | – | – | – |
| Cc1cc(C)c2c(n1)S(=O)(=O)N(CCCN1CCN(c3cccc(C(F)(F)F)c3)CC1)/C(=C(\O)c1ccccc1)C2=O | 16.5 | > 100 | 22.4 | > 100 | > 100 | > 100 | – | – | – | – |
| OC1C(O)C(O)C(O)C(O)C1O (centres undefined) | > 1000 | > 1000 | > 1000 | > 1000 | > 1000 | 144 | – | – | – | – |

| Compound | TGI (786-0 renal) [µM] | TGI (SN12C renal) [µM] | TGI (NCI/ADR-RES ovarian) [µM] | TGI (U251 CNS) [µM] | TGI (T-47D breast) [µM] | TGI (CCRF-CEM leukemia) [µM] | GI50 (SN12C renal) [µM] | GI50 (NCI/ADR-RES ovarian) [µM] | GI50 (T-47D breast) [µM] | GI50 (CCRF-CEM leukemia) [µM] |
| --- | --- | --- | --- | --- | --- | --- | --- | --- | --- | --- |
| CCCn1cnc2c(NN=O)ncnc21 | > 100 | – | > 100 | > 100 | > 100 | – | – | – | – | – |
| CCOC(=O)CCC(C(=O)OCC)n1nc2ccc(Nc3c(C)[n+]([O-])c4cc(Cl)ccc4[n+]3[O-])cc2n1 (centres undefined) | > 100 | > 100 | > 100 | > 100 | > 100 | > 100 | – | – | – | – |
| NC1CC2C3CCC2C1C3=O (centres undefined) | > 100 | > 100 | > 100 | > 100 | > 100 | > 100 | – | – | – | – |
| COC(=O)C(NC(=O)CNC(=O)CSc1nnc(COc2ccc(Cl)cc2)n1-c1ccccc1)C(C)C (centres undefined) | 32.5 | 35.9 | > 100 | 35.5 | – | > 100 | – | – | – | – |
| CC(C)(C)c1cc(-c2ccc(-c3cc(C(C)(C)C)c(O)c(C(C)(C)C)c3)cc2)cc(C(C)(C)C)c1O | > 100 | > 100 | > 100 | > 100 | > 100 | – | – | – | – | – |
| O=C1CN(c2ccc(Cl)cc2)C(=O)CN1CCN1CC(=O)N(c2ccc(Cl)cc2)CC1=O | > 100 | > 100 | – | > 100 | – | > 100 | – | – | – | – |
| CN(C)c1ccc(/C=C/c2sc3ccc4ccccc4c3[n+]2C)cc1 | – | 3.43 | > 100 | – | – | > 100 | 0.359 | 2.81 | 0.367 | 0.33 |
| CN1CCN(CC(=O)Nc2ccc3ncnc(Nc4ccc(Oc5cccc(C(F)(F)F)c5)c(Cl)c4)c3c2)CC1 | – | 3.26 | – | – | 4.1 | – | 1.7 | – | 1.66 | – |
| Cn1c(C(C#N)c2cc(Cl)ncn2)nc2ccccc21 (centres undefined) | > 100 | > 100 | > 100 | > 100 | > 100 | – | – | – | – | – |
| COC1(OC)N=C(N)C2(C#N)C(C)CC(=O)N(N(C)C)C12C#N (centres undefined) | > 100 | > 100 | > 100 | > 100 | > 100 | > 100 | – | – | – | – |
| C#CC(O)/C=C/CCCCCCC#CC/C=C\CC#CCCCCCC/C=C/C(O)C#C (centres undefined) | 5.23 | 4.02 | 8.26 | 26 | 5.85 | 0.722 | – | – | – | – |
| COc1cc(/C=C2\N=C(c3ccccc3)N(C3Nc4cc5c(cc4S3)NC(N3C(=O)/C(=C/c4cc(OC)c(OC)c(OC)c4)N=C3c3ccccc3)S5)C2=O)cc(OC)c1OC (centres undefined) | > 100 | – | > 100 | > 100 | > 100 | – | – | – | – | – |
| CC1=C/C(=N/N2C(=O)/C(=C/c3ccc(Cl)cc3)N=C2c2ccccc2)CC(C)(C)C1 | > 100 | > 100 | > 100 | 69.7 | > 100 | – | – | – | – | – |
| Oc1ccc(-c2nc3cc(C(F)(F)F)ccc3n2CC2CCCN3CCCCC23)cc1 (centres undefined) | 30.7 | – | 32.9 | 28 | 47.6 | 31.8 | – | – | – | – |
| CC1=C(C2=C(C)C(=O)C(=O)c3cc(C)ccc32)c2ccc(C)cc2C(=O)C1=O | 1.45 | 0.314 | – | 0.685 | – | > 100 | – | – | – | – |
| Cn1c(-c2csc(-c3ccc(Cl)cc3)n2)n[nH]c1=S | 32.2 | > 100 | > 100 | – | > 100 | > 100 | – | – | – | – |
| Cc1nc2c(nc1C)-c1c(c3c(n1Cc1ccccc1)C(=O)CCC3)C(=O)C2=O | > 100 | – | > 100 | – | > 100 | > 100 | – | – | – | – |
| COC1=CC(=O)C(O)=C(C[C@@]2(C)[C@@H]3CCC[C@H](COC(=O)CCCCCNC(=O)OC(C)(C)C)[C@@]3(C)CC[C@@H]2C)C1=O | > 10 | > 10 | – | > 10 | > 10 | 5.29 | – | – | – | – |
| CCOC(=O)c1c(C)n(Cc2ccccc2)c2c1cc(O)c1[nH]c3c(c12)CCCC3 | 30.2 | 17.8 | 18.5 | 4.1 | – | 7.4 | – | – | – | – |
| C=C1C(=O)OC2/C=C(\C)C(O)CC(O)C(C)(O)CC(OC(=O)/C(C)=C/C)C12 (centres undefined) | > 100 | > 100 | – | > 100 | > 100 | > 82.8 | – | – | – | – |
| CC(SC(=S)N1CCCCC1)C(=O)Nc1nnc(-c2ccc(Cl)cc2)o1 (centres undefined) | 47.5 | 51.6 | > 100 | > 100 | > 100 | – | – | – | – | – |
| CCCCCCOc1ccc(NC2=C(Cl)C(=O)c3cccnc3C2=O)cc1 | 2.8 | 4.08 | – | 7.29 | 3.78 | > 10 | – | – | – | – |
